Like-named read-outs stand apart in the source and are kept apart here.
Columns and labels:
[1] = target: T1, RIPK2 and XIAP protein-protein interaction (Homo sapiens, UniProt O43353); assay: Inhibition of the interaction of RIPK2 with XIAP (NanoBRET in HEK293T cells); format: cell-based; conditions: RIPK2 HaloTag / XIAP NanoLuc, read-out: NanoBRET Scaffolding IC50
T1 construct: the N-terminus of full-length RIPK2 was appended with the HaloTag fusion protein; expressed in transfected cells; host or cells: HEK293T
T1 sequence (O43353 whole entry, the tested form may be a part): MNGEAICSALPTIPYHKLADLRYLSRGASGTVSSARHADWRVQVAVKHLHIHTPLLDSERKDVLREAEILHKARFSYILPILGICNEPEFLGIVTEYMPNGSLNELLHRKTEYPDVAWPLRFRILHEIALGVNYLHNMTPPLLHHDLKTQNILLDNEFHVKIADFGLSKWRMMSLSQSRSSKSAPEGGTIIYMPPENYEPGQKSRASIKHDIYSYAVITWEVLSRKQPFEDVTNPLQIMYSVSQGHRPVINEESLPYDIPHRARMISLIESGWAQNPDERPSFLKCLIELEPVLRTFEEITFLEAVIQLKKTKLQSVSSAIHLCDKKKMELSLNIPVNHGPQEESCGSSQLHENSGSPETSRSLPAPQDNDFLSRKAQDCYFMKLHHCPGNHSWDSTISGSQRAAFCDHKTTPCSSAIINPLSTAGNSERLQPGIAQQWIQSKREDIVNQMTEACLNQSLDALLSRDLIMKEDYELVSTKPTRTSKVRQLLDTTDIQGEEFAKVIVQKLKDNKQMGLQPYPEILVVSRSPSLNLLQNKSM
Outline: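 HEK293T cells transiently co-transfected with HaloTag-RIPK2 (N-terminal) and XIAP-NanoLuc (C-terminal) full-length fusions, grown 24 h at 37° C. in Opti-MEM with 4% FBS. Compounds tested as 10-point 3-fold dilutions; NanoBRET ratio taken as 618 nm acceptor over 460 nm donor emission.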

[2] = system: TNF-alpha secretion in human whole blood; assay: Inhibition of TNF-alpha secretion in human whole blood (IFN-gamma primed, L18-MDP stimulated); format: cell-based; conditions: L18-MDP 100 ng/mL, read-out: Human Whole Blood TNFα IC50
Protocol: Materials: Assay medium consisted of RPMI 1640 medium (catalogue number: 11875119) and 10% heat inactivated FBS (Cytvia). U-PLEX Biomarker Assay (cat #K15067L-4) to detect levels of TNF-alpha was purchased from Meso Scale Discovery. Heparinized whole blood from healthy donors/volunteers was obtained through Research Blood Components, LLC.
Test compounds were prepared into a 10 mM DMSO solution and serially diluted into 9 points using a 3-fold dilution in a 96 well plate. A 10× working stock solution of recombinant human IFN-gamma (final concentration of 10 ng/mL) was prepared in assay medium and used to prepare a 10× solution of test compound. 20 μL of 10×IFN-gamma and test compound (or DMSO control) was added to a 96-well plate. 160 μL of heparinized whole blood obtained from healthy donors was dispensed into individual wells of the 96-well plate and placed on a plate shaker (150 rpm) and incubated for 60 min at 37° C. in a CO2 incubator. Subsequently, 20 μL of L18-MDP (final concentration of 100 ng/mL) was added to the appropriate wells and further incubated for 16 hours on a plate shaker (150 rpm) at 37° C. in a CO2 incubator. The final concentration of DMSO was 0.05% (v/v) in all wells. After incubation, 100 μL of DPBS was added per well, mixed by shaking at 500 rpm for 2 minutes, followed by centrifugation (400×g for 10 minutes) and collection of supernatants. TNF-alpha in supernatants was measured using MSD immunoassay (MesoScale Discovery). 4-parametric curve fit was used to determine the test compound concentration that results in 50% reduction of TNF-alpha concentration in supernatant relative to assay controls.

RIPK2 enzyme = target: T2, RIPK2 enzyme (Homo sapiens, UniProt O43353); assay: RIPK2 inhibition (ADP-Glo Kinase Assay); format: biochemical; conditions: RIPK2 5 nM, ATP 150 μM, MBP substrate, read-out: RIPK2 IC50
T2 construct: purchased Carna 09-128
T2 sequence (O43353 1-299 limits assumed): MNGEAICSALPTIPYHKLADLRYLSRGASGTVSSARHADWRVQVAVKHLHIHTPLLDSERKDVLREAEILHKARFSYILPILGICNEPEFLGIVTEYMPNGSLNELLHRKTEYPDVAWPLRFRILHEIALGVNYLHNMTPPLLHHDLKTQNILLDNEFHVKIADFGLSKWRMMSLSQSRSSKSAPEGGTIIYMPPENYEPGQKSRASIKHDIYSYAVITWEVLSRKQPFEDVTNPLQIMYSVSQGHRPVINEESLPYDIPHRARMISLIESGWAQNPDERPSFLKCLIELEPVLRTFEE
Outline: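 Human RIPK2 (5 nM) preincubated with compound 30 min at room temperature in 50 mM HEPES pH 7.5, 10 mM MgCl2, 2 mM DTT, 1 mM EGTA, 0.01% Brij-35, 0.05% BSA; native swine MBP as substrate. ADP formed quantified by ADP-Glo luminescence; percent inhibition relative to DMSO and no-enzyme controls.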

human NOD2 signaling = assay: Inhibition of human NOD2 signaling in HEK-Blue-hNOD2 cells (L18-MDP stimulated, SEAP reporter); format: cell-based; conditions: NOD2 ligand stimulation, SEAP reporter, read-out: hNOD2 IC50
Outline: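 HEK-Blue-hNOD2 cells (HEK293 with NOD2 and SEAP reporter), 12500/well, treated with 10-point 3-fold compound dilutions plus L18-MDP 0.5 ng/mL final, 24 h at 37 °C. Supernatant SEAP read with QUANTI-Blue after 3 h at 620 nm; IC50 by 4-parameter fit vs DMSO±L18-MDP controls.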

[3] = Homo sapiens, HEK-Blue hNOD2, HEK-Blue-hNOD2 cells

IC50 [1]	IC50 ([2]; Homo sapiens, 16 h)	IC50 (RIPK2 enzyme)	IC50 (human NOD2 signaling; [3])	SMILES	IC50 ([2]; 16 hours)	IC50 (human NOD2 signaling; HEK-Blue-hNOD2 cells)
184 nM	5.9 nM	< 2.5 nM	1.8 nM	CCS(=N)(=O)c1ccc2nccc(Oc3ccc(CC(=O)Nc4cnn(C(C)(C)C)c4)cc3C)c2c1 (single isomer, unassigned) [Compound 545, N-(1-(tert-butyl)-1H-pyrazol-4-yl)-2-(4-((6-(ethylsulfonimidoyl)quinolin-4-yl)oxy)-3-methylphenyl) acetamide]	–	–
73 nM	49 nM	< 2.5 nM	3.4 nM	Cc1cc(CC(=O)Nc2cnn(C(C)(C)C)c2)cc(F)c1Oc1ccnc2ccc(S(C)(=O)=O)cc12 [Compound 299, N-(1-(tert-butyl)-1H-pyrazol-4-yl)-2-(3-fluoro-5-methyl-4-((6-(methylsulfonyl)quinolin-4-yl)oxy)phenyl)acetamide]	–	–
218 nM	5 nM	4.8 nM	39.3 nM	CC(C)(C)n1cc(NC(=O)Cc2ccc(Oc3ccnc4ccc(S(C)(=N)=O)cc34)cc2F)cn1 (stereo not shown) [Compound 43, N-(1-(tert-butyl)-1H-pyrazol-4-yl)-2-(2-fluoro-4-((6-(S-methylsulfonimidoyl)quinolin-4-yl)oxy)phenyl)acetamide]	–	–

More lines, now with the values behind:

SMILES	IC50 [1]	IC50 ([2]; Homo sapiens, 16 h)	IC50 (RIPK2 enzyme)	IC50 (human NOD2 signaling; [3])	IC50 ([2]; 16 hours)	IC50 (human NOD2 signaling; HEK-Blue-hNOD2 cells)
Cc1cc(CC(=O)Nc2nnc(C(C)(C)C)s2)c(F)cc1Oc1ccnc2ccc(S(C)(=O)=O)cc12 [Compound 443, N-(5-(tert-butyl)-1,3,4-thiadiazol-2-yl)-2-(2-fluoro-5-methyl-4-((6-(methylsulfonyl)quinolin-4-yl)oxy)phenyl) acetamide]	11 nM	83 nM	< 2.5 nM	1.1 nM	–	–
Cc1cc(CC(=O)Nc2noc(C(C)(C)C)n2)ccc1Oc1ccnc2ccc(S(C)(=O)=O)cc12 [Compound 182, N-(5-(tert-butyl)-1,2,4-oxadiazol-3-yl)-2-(3-methyl-4-((6-(methylsulfonyl)quinolin-4-yl)oxy)phenyl) acetamide]	18 nM	14 nM	< 2.5 nM	2 nM	–	–
Cc1cc(CC(=O)Nc2cnn(C(C)(C)C)c2)c(F)cc1Oc1ccnc2cc(F)c(C(N)=O)cc12 [Compound 465, 4-(4-(2-((1-(tert-butyl)-1H-pyrazol-4-yl)amino)-2-oxoethyl)-5-fluoro-2-methylphenoxy)-7-fluoroquinoline-6-carboxamide]	4.2 nM	2.6 nM	< 2.5 nM	0.2 nM	–	–
[2H]C([2H])([2H])NC(=O)c1ccc2nccc(Oc3ccc(CC(=O)Nc4cnn(C56CC(C5)C6)c4)cc3C)c2c1 [Compound 559, 4-(4-(2-((1-(bicyclo[1.1.1]pentan-1-yl)-1H-pyrazol-4-yl)amino)-2-oxoethyl)-2-methylphenoxy)-N-(methyl-d3)quinoline-6-carboxamide]	95.8 nM	2 nM	< 2.5 nM	1 nM	–	–
Cc1c(Oc2ccnc3ccc(S(=N)(=O)C4CC4)cc23)ccc(CC(=O)Nc2cnn(C(C)(C)C)c2)c1F (single isomer, unassigned) [Compound 441, N-(1-(tert-butyl)-1H-pyrazol-4-yl)-2-(4-((6-(cyclopropanesulfonimidoyl)quinolin-4-yl)oxy)-2-fluoro-3-methylphenyl)acetamide]	8 nM	6 nM	< 2.5 nM	0.2 nM	–	–
Cc1cc(CC(=O)Nc2cnn(C(C)(C)C)c2)ccc1Oc1ccnc2ccc(S(=N)(=O)C3CC3)cc12 (single isomer, unassigned) [Compound 544, N-(1-(tert-butyl)-1H-pyrazol-4-yl)-2-(4-((6-(cyclopropanesul-fonimidoyl)quinolin-4-yl)oxy)-3-methylphenyl) acetamide]	123 nM	–	< 2.5 nM	–	4.5 nM	2 nM
Cc1cc(CC(=O)Nc2cnn(C(C)(C)C)c2)ccc1Oc1ncnc2ccc(OC3CCN(C)CC3)cc12 [Compound 84, N-(1-(tert-butyl)-1H-pyrazol-4-yl)-2-(3-methyl-4-((6-((1-methyl-piperidin-4-yl)oxy)quinazolin-4-yl)oxy)phenyl) acetamide]	37 nM	–	9.3 nM	–	4 nM	19.2 nM

— patent US12624018B1, “Inhibitors of RIPK2 and medical uses thereof” (Odyssey Therapeutics, Inc., priority 2022, dated 2026)
